In patent US11912695B2, “Benzodiazepine derivatives as RSV inhibitors” (ENANTA PHARMACEUTICALS, INC., priority 2019, dated 2024):

Assays:
[1] = system: Human RSV-A (“Long” strain); assay: RSV-A assay (CPE, ATPlite) in Hep-2 cells; assay type: cell-based; conditions: human respiratory syncytial virus, 120 h, MOI 0.1, 5-day incubation, ATPlite readout
Excerpt: Hep-2 cells, (originally derived from tumors grown in irradiated-cortisonised weanling rats that had been injected with epidermoid carcinoma tissue from a person's larynx, but later found to be indistinguishable from HeLa cells by PCR DNA analysis), were used for the culturing of genotype A, “Long” strain RSV. Flasks were inoculated with RSV and viral stocks were collected once cytopathic effect (CPE) was greater than 90%. Viral stocks in 25% sucrose media were snap frozen using liquid nitrogen to increase viral stability. Viral stock titers were quantified by tissue culture infectious dose 50% (TCID50) using 8,000 cells per well and 3-fold viral dilutions across a 96-well plate, cultured for 4 days. Viral stock titers were also quantified by a plaque forming unit assay, as described elsewhere.
Following extensive parameter testing, the final assay is run as follows: Hep-2 cells are seeded into the inner 60 wells of a 96-well plate at 8,000 cells per well in a volume of 50 μL using Growth Media (DMEM without phenol red, 1% L-Glut, 1% Penn/Strep, 1% nonessential amino acids, 10% heat-inactivated FBS). 2-fold serial dilutions of control and test compounds are added to the wells in duplicate in a total volume of 25 μL. Viral stock is then added to the wells at a multiplicity of infection (MOI) of 0.1 in a volume of 25 μL, bringing the total volume of each well to 100 μL. The MOI is calculated using the PFU/mL, or TCID50 if unavailable. Each 96-well plate has a control column of 6 wells with cells and virus but no compound (negative control, max CPE), a column with cells but no compound or virus (positive control, minimum CPE), and a column with no cells or virus or compound (background plate/reagent control). The control wells with cells but no virus are given an additional 25 μL of growth media containing an equal quantity of sucrose as those wells receiving the viral stock in order to keep consistent in media and volume conditions. The outer wells of the plate are filled with 125 μL of moat media (DMEM, 1% Penn/Strep) to act as a thermal and evaporative moat around the test wells. Following a 5-day incubation period, the plates are read using ATPlite (50 μL added per well), which quantifies the amount of ATP (a measure of cell health) present in each well. Assay plates are read using the Envision luminometer. In parallel, cytotoxicity is examined on an additional 96-well plate treated in an identical manner, but substituting the 25 μL of viral stock for 25 μL of growth media. […] EC50 ranges are as follows: A<0.4 μM; B 0.4-0.8 μM; C>0.8 μM.

[2] = system: Human RSV-B (genotype B, strain 9320); assay: RSV-B assay (qPCR or ATPlite) in A549 cells; assay type: cell-based; conditions: human respiratory syncytial virus, 144 h, strain 9320, MOI 0.5, 6 days post infection, qPCR or ATPlite readout
Excerpt: Hep-2 cells, (originally derived from tumors grown in irradiated-cortisonised weanling rats that had been injected with epidermoid carcinoma tissue from a person's larynx, but later found to be indistinguishable from HeLa cells by PCR DNA analysis), were used for the culturing of genotype B, strain 9320. Flasks were inoculated with RSV-B and viral stocks were collected once cytopathic effect (CPE) was greater than 90%. Viral stocks in 25% sucrose media were snap frozen using liquid nitrogen to increase viral stability. Viral stock titers were quantified by tissue culture infectious dose 50% (TCID50) using 8,000 cells per well and 5-fold viral dilutions across a 96-well plate, cultured for 4 days. Viral stock titers were also quantified by a plaque forming unit assay, as described elsewhere.
The assay is run as follows: A549 cells (originally derived through explant culture from a person's carcinomatous lung tissue) are seeded into the inner 60 wells of a 96-well plate at 3,000 cells per well in a volume of 50 μL using A549 growth media (F-12K Media, 1% Penn/Strep, 1% nonessential amino acids, 10% heat-inactivated FBS). 2-fold serial dilutions of control and test compounds are added to the wells in duplicate in a total volume of 25 μL. Viral stock is then added to the wells at a multiplicity of infection (MOI) of 0.5 in a volume of 25 μL, bringing the total volume of each well to 100 μL. The MOI is calculated using the PFU/mL, or TCID50 if unavailable. Each 96-well plate has a control column of 6 wells with cells and virus but no compound (negative control, max CPE), a column with cells but no compound or virus (positive control, minimum CPE), and a column with no cells or virus or compound (background plate/reagent control). The control wells with cells but no virus are given an additional 25 μL of growth media containing an equal quantity of sucrose as those wells receiving the viral stock in order to keep consistent in media and volume conditions. The outer wells of the plate are filled with 125 μL of moat media (DMEM, 1% Penn/Strep) to act as a thermal and evaporative moat around the test wells. 6 days post infection, the plates are read using qPCR or ATP lite (50 μL added per well), which quantifies the amount of ATP (a measure of cell health) present in each well. Assay plates treated with APTlite are read using the Envision luminometer. […] EC50 ranges are as follows: A<0.4 μM; B 0.4-0.8 μM; C>0.8 μM.

Q: With `CCc1ncc(-c2sc(C3CC3)nc2-c2nnc(N[C@@H]3N=C(c4ccccc4)c4cccc(F)c4NC3=O)o2)cn1` [Example 44] as the compound, how does the EC50 [1] read?
A: < 0.4 µM

Q: And the EC50 [2]?
A: < 0.4 µM

Q: For `O=C1Nc2ccccc2C(c2ccccc2)=NC1Nc1nnc(-c2ncc(C(F)(F)F)cc2-c2cnc(C3CCC3)nc2)o1` (stereo not shown) [Example 13], which EC50 [1] is on record?
A: 0.4 to 0.8 µM

Q: What about the EC50 [2] of the same compound?
A: < 0.4 µM

Q: `O=C1Nc2ccccc2C(c2ccccc2)=N[C@@H]1Nc1nnc(-c2ncc(C3CC3)cc2-c2cnc(C3CC3)nc2)o1` [Example 77] was tested. Which EC50 [1] did it give?
A: < 0.4 µM

Q: And the EC50 [2]?
A: < 0.4 µM

Q: Which EC50 [1] does the source give for `CCc1ncc(-c2sc(C)nc2-c2nnc(N[C@@H]3N=C(c4ccccc4)c4cccc(F)c4NC3=O)o2)cn1` [Example 37] here?
A: < 0.4 µM

Q: And the EC50 [2]?
A: < 0.4 µM

Q: With `O=C1Nc2c(F)cccc2C(c2ccccc2)=N[C@H]1Nc1nnc(-c2nc(C3CC3)sc2-c2cnc(C3CC3)nc2)o1` [Example 47] as the compound, how does the EC50 [1] read?
A: < 0.4 µM

Q: And the EC50 [2]?
A: < 0.4 µM

Q: For `O=C1Nc2ccccc2C(c2ccccc2)=N[C@@H]1Nc1nnc(-c2ncc(C(F)(F)F)cc2-c2cnc(C3CC3)nc2)o1` [Example 25], which EC50 [1] is on record?
A: < 0.4 µM

Q: And the EC50 [2]?
A: < 0.4 µM

Q: What does the source list for `CC(F)(F)c1ncc(-c2cc(C(F)(F)F)cnc2-c2nnc(NC3N=C(c4ccccc4)c4ccccc4NC3=O)o2)cn1` (stereo not shown) [Example 11]?
A: EC50 [1]: > 0.8 µM; EC50 [2]: 0.4 to 0.8 µM

Q: `CCc1nc(-c2nnc(N[C@H]3N=C(c4ccccc4)c4cccc(F)c4NC3=O)o2)c(-c2cnc(C3CC3)nc2)s1` [Example 54] was tested. Which EC50 [1] did it give?
A: < 0.4 µM

Q: What about the EC50 [2] of the same compound?
A: < 0.4 µM

Q: Which results are given for `C#Cc1ncc(-c2cc(C(F)(F)F)cnc2-c2nnc(NC3N=C(c4ccccc4)c4ccccc4NC3=O)o2)cn1` (stereo not shown) [Example 19]?
A: EC50 [1]: > 0.8 µM; EC50 [2]: 0.4 to 0.8 µM

Q: `Cc1ncc(-c2nc(C(F)(F)F)ccc2-c2nnc(N[C@H]3N=C(c4ccccc4)c4ccccc4NC3=O)o2)cn1` [Example 21] was tested. Which EC50 [1] did it give?
A: 0.4 to 0.8 µM

Q: What about the EC50 [2] of the same compound?
A: < 0.4 µM

Q: `CCc1nc(-c2nnc(N[C@@H]3N=C(c4ccccc4)c4cccc(F)c4NC3=O)o2)c(-c2cnc(C3CC3)nc2)s1` [Example 53] was tested. Which EC50 [1] did it give?
A: 0.4 to 0.8 µM

Q: And the EC50 [2]?
A: < 0.4 µM

Q: How did the EC50 [1] turn out when `O=C1Nc2ccccc2C(c2ccccc2)=NC1Nc1nnc(-c2ncc(C(F)(F)F)cc2-c2cnc(Cl)nc2)o1` (stereo not shown) [Example 14, 3-((5-(3-(2-chloropyrimidin-5-yl)-5-(trifluoromethyl)pyridin-2-yl)-1,3,4-oxadiazol-2-yl)amino)-5-phenyl-1,3-dihydro-2H-benzo[e][1,4]diazepin-2-one] was run?
A: > 0.8 µM

Q: What about the EC50 [2] of the same compound?
A: > 0.8 µM

Q: For `O=C1Nc2c(F)cccc2C(c2ccccc2)=N[C@@H]1Nc1nnc(-c2ncc(C(F)(F)F)cc2-c2cnc(C3CC3)nc2)o1` [Example 24], which EC50 [1] is on record?
A: < 0.4 µM

Q: What about the EC50 [2] of the same compound?
A: < 0.4 µM

Q: What does the source list for `Cc1ncc(-c2sc(C3CCC3)nc2-c2nnc(N[C@H]3N=C(c4ccccc4)c4cccc(F)c4NC3=O)o2)cn1` [Example 61]?
A: EC50 [1]: < 0.4 µM; EC50 [2]: < 0.4 µM

Q: How did the EC50 [1] turn out when `CCc1ncc(-c2cc(C(F)(F)F)cnc2-c2nnc(NC3N=C(c4ccccc4)c4ccccc4NC3=O)o2)cn1` (stereo not shown) [Example 8] was run?
A: < 0.4 µM

Q: What about the EC50 [2] of the same compound?
A: < 0.4 µM

Q: What does the source list for `Cc1ncc(-c2sc(C3CC3)nc2-c2nnc(N[C@H]3N=C(c4ccccc4)c4cccc(F)c4NC3=O)o2)cn1` [Example 56]?
A: EC50 [1]: < 0.4 µM; EC50 [2]: < 0.4 µM

Q: With `CCc1nc(-c2nnc(N[C@@H]3N=C(c4ccccc4)c4cccc(F)c4NC3=O)o2)c(-c2cnc(C)nc2)s1` [Example 51] as the compound, how does the EC50 [1] read?
A: 0.4 to 0.8 µM

Q: And the EC50 [2]?
A: < 0.4 µM

Q: What does the source list for `O=C1Nc2ccccc2C(c2ccccc2)=NC1Nc1nnc(-c2ncc(C(F)(F)F)cc2-c2cnc(C3CC3)nc2)o1` (stereo not shown) [Example 7]?
A: EC50 [1]: < 0.4 µM; EC50 [2]: < 0.4 µM

Q: For `Cc1cnc(-c2nnc(N[C@H]3N=C(c4ccccc4)c4ccccc4NC3=O)o2)c(-c2cnc(C3CC3)nc2)c1` [Example 99], which EC50 [1] is on record?
A: < 0.4 µM

Q: And the EC50 [2]?
A: < 0.4 µM

Q: For `Cc1ncc(-c2sc(C3(C(F)(F)F)CC3)nc2-c2nnc(N[C@H]3N=C(c4ccccc4)c4cccc(F)c4NC3=O)o2)cn1` [Example 73], which EC50 [1] is on record?
A: < 0.4 µM

Q: And the EC50 [2]?
A: < 0.4 µM

Q: How did the EC50 [1] turn out when `Cc1nc(-c2nnc(N[C@@H]3N=C(c4ccccc4)c4cccc(F)c4NC3=O)o2)c(-c2cnc(C3CC3)nc2)s1` [Example 40] was run?
A: < 0.4 µM

Q: And the EC50 [2]?
A: < 0.4 µM

Q: Which EC50 [1] does the source give for `CCc1ncc(-c2sc(C3CC3)nc2-c2nnc(N[C@@H]3N=C(c4ccccc4)c4ccccc4NC3=O)o2)cn1` [Example 49] here?
A: 0.4 to 0.8 µM

Q: What about the EC50 [2] of the same compound?
A: < 0.4 µM

Q: What does the source list for `CCc1ncc(-c2sc(C3(C)CC3)nc2-c2nnc(N[C@H]3N=C(c4ccccc4)c4cccc(F)c4NC3=O)o2)cn1` [Example 69]?
A: EC50 [1]: < 0.4 µM; EC50 [2]: < 0.4 µM

Q: How did the EC50 [1] turn out when `O=C1Nc2c(F)cccc2C(c2ccccc2)=N[C@@H]1Nc1nnc(-c2nc(C3CCC3)sc2-c2cnc(C3CC3)nc2)o1` [Example 65] was run?
A: < 0.4 µM

Q: And the EC50 [2]?
A: < 0.4 µM

Q: How did the EC50 [1] turn out when `CCc1ncc(-c2cccnc2-c2nnc(NC3N=C(c4ccccc4)c4ccccc4NC3=O)o2)cn1` (stereo not shown) [Example 15] was run?
A: > 0.8 µM

Q: What about the EC50 [2] of the same compound?
A: < 0.4 µM

Q: `O=C1Nc2c(F)cccc2C(c2ccccc2)=N[C@@H]1Nc1nnc(-c2nc(C3(C(F)(F)F)CC3)sc2-c2cnc(C3CC3)nc2)o1` [Example 75] was tested. Which EC50 [1] did it give?
A: < 0.4 µM

Q: What about the EC50 [2] of the same compound?
A: < 0.4 µM

Q: Which EC50 [1] does the source give for `CCc1ncc(-c2sc(C3(C(F)(F)F)CC3)nc2-c2nnc(N[C@@H]3N=C(c4ccccc4)c4ccccc4NC3=O)o2)cn1` [Example 70] here?
A: > 0.8 µM

Q: What about the EC50 [2] of the same compound?
A: > 0.8 µM

Q: Which results are given for `O=C1Nc2c(F)cccc2C(c2ccccc2)=N[C@H]1Nc1nnc(-c2nc(C3(C(F)(F)F)CC3)sc2-c2cnc(C3CC3)nc2)o1` [Example 74]?
A: EC50 [1]: > 0.8 µM; EC50 [2]: < 0.4 µM

Q: Which results are given for `CCc1nc(-c2nnc(N[C@H]3N=C(c4ccccc4)c4cccc(F)c4NC3=O)o2)c(-c2cnc(C)nc2)s1` [Example 52]?
A: EC50 [1]: < 0.4 µM; EC50 [2]: < 0.4 µM

Q: Which results are given for `O=C1Nc2ccccc2C(c2ccccc2)=N[C@@H]1Nc1nnc(-c2ncc(CO)cc2-c2cnc(C3CC3)nc2)o1` [Example 97]?
A: EC50 [1]: < 0.4 µM; EC50 [2]: < 0.4 µM

Q: Which results are given for `CCc1ncc(-c2cc(C(F)(F)F)cnc2-c2nnc(N[C@H]3N=C(c4ccccc4)c4cccc(F)c4NC3=O)o2)cn1` [Example 28]?
A: EC50 [1]: < 0.4 µM; EC50 [2]: < 0.4 µM

Q: What does the source list for `O=C1Nc2c(F)cccc2C(c2ccccc2)=N[C@@H]1Nc1nnc(-c2ncc(C3CC3)cc2-c2cnc(C3CC3)nc2)o1` [Example 76]?
A: EC50 [1]: < 0.4 µM; EC50 [2]: < 0.4 µM

Q: Which results are given for `Cc1ncc(-c2sc(C3(C(F)(F)F)CC3)nc2-c2nnc(N[C@@H]3N=C(c4ccccc4)c4cccc(F)c4NC3=O)o2)cn1` [Example 72]?
A: EC50 [1]: > 0.8 µM; EC50 [2]: < 0.4 µM

Q: Which results are given for `O=C1Nc2c(F)cccc2C(c2ccccc2)=N[C@@H]1Nc1nnc(-c2nc(C3CC3)sc2-c2cnc(C3CC3)nc2)o1` [Example 48]?
A: EC50 [1]: < 0.4 µM; EC50 [2]: < 0.4 µM

Q: What does the source list for `Cc1ncc(-c2sc(C3(C)CC3)nc2-c2nnc(N[C@@H]3N=C(c4ccccc4)c4cccc(F)c4NC3=O)o2)cn1` [Example 66]?
A: EC50 [1]: 0.4 to 0.8 µM; EC50 [2]: < 0.4 µM
